These results are taken from publication PMC3742671, “Structure, Antimicrobial Activities and Mode of Interaction with Membranes of Bovel Phylloseptins from the Painted-Belly Leaf Frog, Phyllomedusa sauvagii” (PLoS ONE, 2013).

Ends that are not written are not given here. A value given as a limit tells only on which side of the number the result lay.

The test system of one series is A. baumannii ATCC 19606. The settings on record: LB medium (pH 7), absorbance at 630 nm; average of three independent experiments in triplicates. The protocol:
(§1) The effect of phylloseptins-S was evaluated against several bacterial strains and yeasts (Table 2). Bacteria were cultured in Luria-Bertani broth (LB), whereas yeasts were cultured in Yeast Peptone Dextrose medium (YPD), and minimal inhibitory concentrations (MICs) were determined by measuring the absorbance at 630 nm in 96-well microtitration plates, as described previously. Leishmanicidal activity of phylloseptins-S was also examined against promastigotes of different Leishmania species: Leishmania infantum (strain MHOM/MA/67/ITMAP-263), L. major (MHOM/SU/73/5-ASKH) and L. braziliensis (MHOM/BR/75/M2904). Culture of promastigotes and determination of the growth inhibition were performed as previously described, [22], [23].
(§2) The antimicrobial activity of synthetic PLS-S1 to -S5 was assayed in LB medium (pH 7) against several Gram-negative and Gram-positive bacteria, and multi-drug resistant S. aureus strains. […] The antiparasitic activity of PLSs was also determined against three Leishmania species (L. infantum, L. major, and L. braziliensis). […] Because PLS-S3 contains histidines as basic residues and that approximately only 11% of these residues are positively charged at pH 7, we have evaluated the antibacterial activity at pH 5 at which His residues are predominantly positively charged (∼91%).

The next series relates to E. coli ATCC 25922. To be noted: for MIC: ATCC 25922, pH 7. The protocol:
as §1, §2

A further series relates to E. coli ML-35p. To be noted: LB medium (pH 7), absorbance at 630 nm; average of three independent experiments in triplicates. How it is done: as §1, §2
The subject of the next series is E. faecalis ATCC 29212. To be noted: LB medium (pH 7), absorbance at 630 nm; average of three independent experiments in triplicates. The protocol:
as §1, §2

The subject of a further series is K. pneumoniae ATCC 13883. To be noted: LB medium (pH 7), absorbance at 630 nm; average of three independent experiments in triplicates. The protocol: as §1, §2
The subject of the next series is P. aeruginosa ATCC 27853. The settings on record: LB medium (pH 7), absorbance at 630 nm; average of three independent experiments in triplicates. How it is done:
as §1, §2

The test system of another series is S. aureus ATCC 25923. To be noted: LB medium (pH 7), absorbance at 630 nm, 96-well plates; average of three independent experiments in triplicates. How it is done:
as §1, §2

For another series, the system named is S. aureus ATCC 43300. The settings on record: strain resistant to methicillin and oxacillin; LB medium (pH 7), absorbance at 630 nm; average of three independent experiments in triplicates. The protocol:
as §1, §2

In the next series the test system is S. aureus ATCC BAA-44. The settings on record: multidrug resistant strain; LB medium (pH 7), absorbance at 630 nm; average of three independent experiments in triplicates. How it is done:
as §1, §2

The subject of a further series is S. aureus ST1065. To be noted: LB medium (pH 7), absorbance at 630 nm; average of three independent experiments in triplicates. The protocol: as §1, §2
The subject of the next series is S. pyogenes ATCC 19615. The settings on record: LB medium (pH 7), absorbance at 630 nm; average of three independent experiments in triplicates. How it is done: as §1, §2
Series [1] has as its system C. parapsilosis ATCC 22019. It counts as cell-based. How it is done: as §1
Another series has as its system S. cerevisiae. The class given is cell-based. How it is done:
as §1

Series [2] is described as follows: Circular dichroism spectroscopy in SDS micelles. The class given is physicochemical. To be noted: CD, peptide 30 µM in 80 mM SDS. How it is done: (§3) The far-ultraviolet circular dichroism (CD) spectra were recorded as described. Phylloseptins-S (30 µM) were solubilized either in 80 mM sodium dodecyl sulfate (SDS) or in phosphate-buffered saline (PBS: 10 mM phosphate, pH 7.3) containing 1 mg/mL of large unilamellar vesicles (LUVs) of 1,2-dimyristoyl-sn-glycero-3-phosphocholine (DMPC) and 1,2-dimyristoyl-sn-glycero-3-phosphoglycerol (DMPG) (3∶1 mol/mol). DMPC and DMPG were purchased from Avanti Polar Lipids, Inc. Each spectrum was the average of four scans. CD measurements are reported as Δ/n, where Δ is the dichroic increment and n is the number of residues in the peptide.
(§4) Figure 6 Circular dichroism spectra of synthetic phylloseptins-S (30 µM). (A) DMPC/DMPG (3∶1) large unilamellar vesicles in PBS (1 mg/mL). (B) 80 mM SDS. CD measurements are reported as the dichroic increment (Δε) per residue.
(Circular dichroism is the unequal absorption of left and right circularly polarised light.)

Series [3] can be described thus: Circular dichroism spectroscopy with DMPC/DMPG (3:1) large unilamellar vesicles. It counts as physicochemical. The settings on record: CD, peptide 30 µM, DMPC/DMPG (3:1) LUVs 1 mg/mL in PBS pH 7.3. How it is done: as §3, §4

Usually MIC stands for the lowest concentration found to suppress growth. A high value points to a less susceptible organism. Regarding FLSLIPHIVSGVASLAIHF-NH2 [PLS-S3], the MIC in the series on A. baumannii ATCC 19606, with E. coli ATCC 25922, against E. coli ML-35p, against E. faecalis ATCC 29212, with K. pneumoniae ATCC 13883 and with P. aeruginosa ATCC 27853 was over 200 µM each time. The minimum inhibitory concentration (MIC) against S. aureus ATCC 25923 is on record as over 200 µM; in the series with S. aureus ATCC 43300, over 200 µM; in the series on S. aureus ATCC BAA-44, over 200 µM; against S. aureus ST1065 it was over 200 µM; in the series with S. pyogenes ATCC 19615, 12.5 µM; in series [1], over 200 µM. In addition, in the series with S. cerevisiae, the MIC is given as over 200 µM. In the series with E. coli ATCC 25922 (ATCC 25922, pH 5), the minimal inhibitory concentration (MIC) at pH 5 came out at 50 µM. In addition, the values for the helix content in [2] and in series [3] were 44% and 65%, respectively.

For LLGMIPVAISAISALSKL-NH2 [PLS-S5], the MIC against E. coli ATCC 25922 is recorded as over 100 µM; with E. coli ML-35p, over 100 µM; against E. faecalis ATCC 29212 it was 100 µM; against P. aeruginosa ATCC 27853 it was over 100 µM; in the series with S. aureus ATCC 25923 it was 25 µM; in the series with S. aureus ATCC 43300 it was over 100 µM. Also, the MIC (against S. aureus ATCC BAA-44; against S. aureus ST1065; in series [1]) was over 100 µM in each case. The helix content is 20% in [2] and 60% in [3].
